According to PubChem BioAssay AID2060603 (Molecular Pharmacology Branch, DTP, NCI, 2025):
pIC50: −log10 of the molar value.

Test system: 422866-222-R5-J1-PDC spheroid viability
Experiment: Anticancer human tumor 422866-222-R5-J1-PDC patient-derived pancreatic adenocarcinoma cell line growth inhibition [CLK]
Conditions: spheroids with HUVEC and MSC; for pIC50: curve of first compound; for viability, T/C: stronger effect = lower value
In short: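 Patient-derived tumor cells grown as complex spheroids with HUVEC endothelial cells and mesenchymal stem cells, treated with drug combinations. Concentrations descend in half-log steps from near clinical Cmax, or from 10 microM if Cmax unknown.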

[1] = second compound 0.0316 µM, first compound 0.0316 µM
[2] = second compound 0.0316 µM, first compound 0.1 µM
[3] = second compound 0.0316 µM, first compound 0.316 µM
[4] = second compound 0.0316 µM, first compound 1 µM
[5] = second compound 0.0316 µM, first compound 3.16 µM
[6] = second compound 0.0316 µM, first compound 10 µM
[7] = second compound 0.1 µM, first compound 0.0316 µM
[8] = second compound 0.1 µM, first compound 0.1 µM
[9] = second compound 0.1 µM, first compound 0.316 µM
[10] = second compound 0.1 µM, first compound 1 µM
[11] = second compound 0.1 µM, first compound 3.16 µM
[12] = second compound 0.1 µM, first compound 10 µM
[13] = second compound 0.316 µM, first compound 0.0316 µM
[14] = second compound 0.316 µM, first compound 0.1 µM
[15] = second compound 0.316 µM, first compound 0.316 µM
[16] = second compound 0.316 µM, first compound 1 µM
[17] = second compound 0.316 µM, first compound 3.16 µM
[18] = second compound 0.316 µM, first compound 10 µM
[19] = second compound 1 µM, first compound 0.0316 µM
[20] = second compound 1 µM, first compound 0.1 µM
[21] = second compound 1 µM, first compound 0.316 µM
[22] = second compound 1 µM, first compound 1 µM
[23] = second compound 1 µM, first compound 3.16 µM
[24] = second compound 1 µM, first compound 10 µM
[25] = second compound 3.16 µM, first compound 0.0316 µM
[26] = second compound 3.16 µM, first compound 0.1 µM
[27] = second compound 3.16 µM, first compound 0.316 µM
[28] = second compound 3.16 µM, first compound 1 µM
[29] = second compound 3.16 µM, first compound 3.16 µM
[30] = second compound 3.16 µM, first compound 10 µM
[31] = second compound 10 µM, first compound 0.0316 µM
[32] = second compound 10 µM, first compound 0.1 µM
[33] = second compound 10 µM, first compound 0.316 µM
[34] = second compound 10 µM, first compound 1 µM
[35] = second compound 10 µM, first compound 3.16 µM
[36] = second compound 10 µM, first compound 10 µM
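Note: spheroids exposed to agents for seven days before readout.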

Question: With `C=CC(=O)N1CCN(c2nc(=O)n(-c3c(C)ccnc3C(C)C)c3nc(-c4c(O)cccc4F)c(F)cc23)C(C)C1` (centres undefined) + CNC(=O)c1ccc(Nc2nc(OC3CCCC3)c3c(-c4ccc5nc(C)oc5c4)c[nH]c3n2)c(OC)c1 as the compound, how does the pIC50 (second compound 0.0316 µM) read?
Answer: The pIC50 was over 7.50.

Question: And the pIC50 (second compound 0.1 µM)?
Answer: Its pIC50 is over 7.50.

Question: And the pIC50 (second compound 0.316 µM)?
Answer: The pIC50 was over 7.50.

Question: What about the pIC50 (second compound 1 µM) of the same compound?
Answer: Its pIC50 is over 7.50.

Question: And the pIC50 (second compound 3.16 µM)?
Answer: The pIC50 was over 7.50.

Question: And the pIC50 (second compound 10 µM)?
Answer: The pIC50 was over 7.50.

Question: What about the viability, T/C [1] of the same compound?
Answer: Its viability, T/C is 36.8%.

Question: And the viability, T/C [2]?
Answer: Its viability, T/C is 35.4%.

Question: What about the viability, T/C [3] of the same compound?
Answer: The viability, T/C was 29.5%.

Question: And the viability, T/C [4]?
Answer: Its viability, T/C is 27.4%.

Question: What about the viability, T/C [5] of the same compound?
Answer: The viability, T/C was 23.5%.

Question: What about the viability, T/C [6] of the same compound?
Answer: Its viability, T/C is 24.6%.

Question: What about the viability, T/C [7] of the same compound?
Answer: The viability, T/C was 34.6%.

Question: And the viability, T/C [8]?
Answer: Its viability, T/C is 33.2%.

Question: What about the viability, T/C [9] of the same compound?
Answer: The viability, T/C was 27.6%.

Question: And the viability, T/C [10]?
Answer: Its viability, T/C is 28.7%.

Question: And the viability, T/C [11]?
Answer: The viability, T/C was 26%.

Question: What about the viability, T/C [12] of the same compound?
Answer: The viability, T/C was 26.1%.

Question: What about the viability, T/C [13] of the same compound?
Answer: The viability, T/C was 34.9%.

Question: What about the viability, T/C [14] of the same compound?
Answer: The viability, T/C was 30.8%.

Question: What about the viability, T/C [15] of the same compound?
Answer: Its viability, T/C is 27.1%.

Question: What about the viability, T/C [16] of the same compound?
Answer: The viability, T/C was 25.6%.

Question: And the viability, T/C [17]?
Answer: Its viability, T/C is 24.8%.

Question: What about the viability, T/C [18] of the same compound?
Answer: The viability, T/C was 26.2%.

Question: What about the viability, T/C [19] of the same compound?
Answer: The viability, T/C was 35.7%.

Question: And the viability, T/C [20]?
Answer: The viability, T/C was 25.7%.

Question: What about the viability, T/C [21] of the same compound?
Answer: Its viability, T/C is 28.8%.

Question: And the viability, T/C [22]?
Answer: The viability, T/C was 25.3%.

Question: And the viability, T/C [23]?
Answer: The viability, T/C was 31.9%.

Question: And the viability, T/C [24]?
Answer: The viability, T/C was 27.7%.

Question: And the viability, T/C [25]?
Answer: The viability, T/C was 32.3%.

Question: And the viability, T/C [26]?
Answer: Its viability, T/C is 29.9%.

Question: And the viability, T/C [27]?
Answer: Its viability, T/C is 28.3%.

Question: And the viability, T/C [28]?
Answer: Its viability, T/C is 24.4%.

Question: And the viability, T/C [29]?
Answer: The viability, T/C was 27.6%.

Question: And the viability, T/C [30]?
Answer: The viability, T/C was 30.9%.

Question: And the viability, T/C [31]?
Answer: Its viability, T/C is 32%.

Question: And the viability, T/C [32]?
Answer: The viability, T/C was 28.9%.

Question: And the viability, T/C [33]?
Answer: Its viability, T/C is 27.8%.

Question: What about the viability, T/C [34] of the same compound?
Answer: Its viability, T/C is 27.4%.

Question: And the viability, T/C [35]?
Answer: Its viability, T/C is 29.9%.

Question: What about the viability, T/C [36] of the same compound?
Answer: Its viability, T/C is 26.4%.

Question: Which results are given for `CC(CO)NC(=O)c1cc(-c2ccc(Cl)cc2)nn(-c2cnn(C)c2)c1=O` (centres undefined) + CNC(=O)c1ccc(Nc2nc(OC3CCCC3)c3c(-c4ccc5nc(C)oc5c4)c[nH]c3n2)c(OC)c1?
Answer: pIC50 (second compound 0.0316 µM): < 5.00; pIC50 (second compound 0.1 µM): < 5.00; pIC50 (second compound 0.316 µM): < 5.00; pIC50 (second compound 1 µM): < 5.00; pIC50 (second compound 3.16 µM): < 5.00; pIC50 (second compound 10 µM): < 5.00; viability, T/C [1]: 91%; viability, T/C [2]: 112%; viability, T/C [3]: 112%; viability, T/C [4]: 114%; viability, T/C [5]: 77.2%; viability, T/C [6]: 81.7%; viability, T/C [7]: 113%; viability, T/C [8]: 97.3%; viability, T/C [9]: 109%; viability, T/C [10]: 98.9%; viability, T/C [11]: 74.9%; viability, T/C [12]: 78.1%; viability, T/C [13]: 73.2%; viability, T/C [14]: 73.8%; viability, T/C [15]: 72.6%; viability, T/C [16]: 73.5%; viability, T/C [17]: 72.2%; viability, T/C [18]: 66.8%; viability, T/C [19]: 74.8%; viability, T/C [20]: 64.2%; viability, T/C [21]: 66.2%; viability, T/C [22]: 55.1%; viability, T/C [23]: 57.5%; viability, T/C [24]: 61.8%; viability, T/C [25]: 56.3%; viability, T/C [26]: 60.8%; viability, T/C [27]: 57.2%; viability, T/C [28]: 61.8%; viability, T/C [29]: 51.5%; viability, T/C [30]: 50.2%; viability, T/C [31]: 55.6%; viability, T/C [32]: 63.4%; viability, T/C [33]: 67%; viability, T/C [34]: 60.4%; viability, T/C [35]: 60.9%; viability, T/C [36]: 56.4%
